Measurements as given in US10254288B2, “Method for species-independent measurement of complement activation in animals” (Quidel Corporation, priority 2013, dated 2019).

Assays:
[1] = tested on: C activation in dog serum; test: Complement activation by different activators in dog serum, pan-species C3 method; type: biochemical; settings: SC5b-9 ELISA to determine SC5b-9
Method: Methods • The sera that were not of commercial origin were prepared from freshly drawn blood, which was let to clot at room temperature for 10-30 min, followed by centrifugation and collection of the supernatant. The serum was then stored at −80° C. until use. Zymosan (final concentration: 1.3 mg/ml) was prepared by suspending it at 2% in 0.15 M sodium chloride, boiling in a water bath for one hour, then centrifuged for 30 minutes at 4000 rpm. The supernatant was discarded and the residue suspended evenly in 0.15 M sodium chloride to 2%. • HAGG was diluted 100-fold (to a final concentration: 0.5 mg/mL). • 10 μL Zymosan (20 mg/ml) or HAGG were incubated for 1 h at 37° C. with a mixture of 20 μL animal serum, and 20 μl C3depl-NHS 100 μl PBS. The reaction was stopped by the addition of the 10 μl stop solution, and 100 μL of a 1:1600 dilution from the mixtures were applied to the wells of the SC5b-9 ELISA plates to measure the formation of SC5b-9 as specified by the manufacturer.
Materials and Methods • Dog blood was obtained from WellPet Animal Clinic (Kecskemét, Géza Fejedelem körút 51. Hungary). Serum was prepared by letting the blood clot at 4° C. for about 10 min (dog blood clots rapidly), followed by centrifugation and collection of supernatant serum. […]

rat C3 = test: C3 consumption in rats in vivo, PS-C3 method in hirudinized plasma samples; settings: 12.5 U/kg CVF
Method: Male Wistar rats (340-480 g) were anesthetized i.p. by Na-pentobarbital (Nembutal, 50 mg/kg) or thiobutabarbital (lnactin, 120 mg/kg). The left femoral artery and vein, left carotid artery, and right jugular vein were cannulated. Rats were anticoagualated with lepirudin (Refludan, 5 mg/kg), then injected i.v. with the C activator liposomes, Doxil and Ambisome. Blood samples were collected from the carotid artery at start (time 0) and at 1-3-5-10-30 min postinjection.
Similar experiments as described in Example 7, except that the rats were injected with 10 mg/kg zymosan or 12.5 U/kg CVF.
Similar experiments as described in Example 11, except that C activation was measured by Quidel's human SC5b-9 (A) and C3a kits (B). Rats were injected with 12.5 U/kg CVF.

Molecule | rise of SC5b-9 over PBS control [1] [fold] | human C3a in the reaction mixture (Quidel's C3a kit) (rat C3) | time to consume essentially all C3 (rat C3) [min] | C3 consumed (rat C3; within 30 min)
CCCCCCCC/C=C\CCCCCCCC(=O)OCCOCC(OCCO)C1OCC(OCCO)C1OCCO (stereo not shown) [Tween 80] | ~30 |  |  | 
CVF |  | elevated | ≤ 30 | essentially all C3
